Among the test systems are LOX IMVI melanoma; DU-145 prostate; KM12 colon; SK-MEL-28 melanoma; M14 melanoma; HOP-62 NSCLC; NCI-H460 lung; MCF7 breast; CCRF-CEM leukemia; SNB-19 CNS; UACC-62 melanoma; UO-31 renal; SF-268 CNS; ACHN renal; SK-MEL-5 melanoma; HT29 colon.
Common to all, as to experiment: growth of human tumour cells (NCI), 48 h

These results are taken from PubChem BioAssay (NCI).

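48-hour exposure; five concentrations; linearly interpolated endpoints. Here, GI50 denotes the concentration required for 50% inhibition of growth. Definition used: TGI = concentration required for complete inhibition of growth.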

As to `CCCCn1c2c(n(CCCC)c1=S)-c1c(n(CCCC)c(=S)n1CCCC)SSSS2`, the TGI is 12.1 µM in the test with LOX IMVI melanoma; greater than 35.3 µM in the test with DU-145 prostate; greater than 33.1 µM in the test with KM12 colon; 31.6 µM with SK-MEL-28 melanoma; 17.5 µM in the test with M14 melanoma; 36.6 µM in the test on HOP-62 NSCLC. Also, the TGI is greater than 93.6 µM with NCI-H460 lung; greater than 100 µM in the test on MCF7 breast; greater than 100 µM with CCRF-CEM leukemia; greater than 100 µM in the test with SNB-19 CNS; 4.87 µM with UACC-62 melanoma; 2.64 µM with UO-31 renal. The TGI in the test with SF-268 CNS came out at 21.4 µM; in the test with ACHN renal, 7 µM; in the test with SK-MEL-5 melanoma, 8.95 µM; in the test on HT29 colon, 7.91 µM.
`O=C(CCc1cccc(O)c1)NCCc1ccc(O)cc1`: the TGI in the test with LOX IMVI melanoma, in the test with DU-145 prostate, with KM12 colon, with SK-MEL-28 melanoma, with M14 melanoma and in the test with HOP-62 NSCLC was greater than 100 µM in each case. Also, the TGI in the test on NCI-H460 lung, with MCF7 breast, in the test on CCRF-CEM leukemia, in the test on SNB-19 CNS, with UACC-62 melanoma and in the test on UO-31 renal was greater than 100 µM in each case. For the same molecule, the TGI in the test on SF-268 CNS, with ACHN renal, with SK-MEL-5 melanoma and in the test on HT29 colon was greater than 100 µM throughout.
For `CCOC(=O)CCC(NC(=O)c1ccc(OCc2nc3ccccc3n3cccc23)cc1)C(=O)OCC` (centres undefined), the TGI with LOX IMVI melanoma, in the test with DU-145 prostate, in the test with KM12 colon, in the test on SK-MEL-28 melanoma, in the test with M14 melanoma and in the test on HOP-62 NSCLC was greater than 100 µM in each case. The TGI in the test with NCI-H460 lung, with MCF7 breast, in the test with CCRF-CEM leukemia, in the test with SNB-19 CNS, in the test with UACC-62 melanoma and with UO-31 renal was greater than 100 µM in each case. For the same molecule, the TGI in the test with SF-268 CNS, in the test on ACHN renal, in the test with SK-MEL-5 melanoma and with HT29 colon was greater than 100 µM in each case.
Consider `CN(C)c1ccc(/C=C(\NC(=O)c2ccccc2)C2NC(Cc3c[nH]c4ccccc34)C(=O)O2)cc1` (centres undefined), for which the TGI in the test on LOX IMVI melanoma is greater than 54.3 µM; in the test on DU-145 prostate it was greater than 100 µM; in the test with KM12 colon, greater than 100 µM; with SK-MEL-28 melanoma, greater than 100 µM; with M14 melanoma, greater than 100 µM; in the test with HOP-62 NSCLC it was greater than 100 µM. Further, the TGI was greater than 74.5 µM with NCI-H460 lung; greater than 100 µM with MCF7 breast; greater than 100 µM in the test on CCRF-CEM leukemia; greater than 100 µM in the test with SNB-19 CNS; greater than 100 µM in the test with UACC-62 melanoma; greater than 100 µM with UO-31 renal. For the same molecule, the TGI with SF-268 CNS, in the test with ACHN renal, in the test on SK-MEL-5 melanoma and in the test with HT29 colon was greater than 100 µM throughout.
For `CCN(CC)CCCNc1nc2ccccc2c2[nH]c3ccc(OC)cc3c12`, the TGI in the test on LOX IMVI melanoma stood at 2.9 µM; in the test on DU-145 prostate, 8.44 µM; in the test on KM12 colon it was 2.03 µM; with SK-MEL-28 melanoma, 3.11 µM; in the test on M14 melanoma, 3.1 µM; with HOP-62 NSCLC it was 3 µM. The TGI in the test with NCI-H460 lung is 1.57 µM; in the test with MCF7 breast, 2.87 µM; with CCRF-CEM leukemia, 3.87 µM; in the test on SNB-19 CNS, 4.25 µM; in the test with UACC-62 melanoma, greater than 10 µM; with UO-31 renal, greater than 10 µM. The TGI was 4.43 µM in the test with SF-268 CNS, greater than 10 µM in the test on ACHN renal, 3.12 µM in the test with SK-MEL-5 melanoma and 2.05 µM in the test on HT29 colon.
With `O=C1C=C(NCCc2cc(Br)c(O)c(Br)c2)C(=O)c2ncccc21`, the TGI in the test on LOX IMVI melanoma was 4.97 µM; in the test with DU-145 prostate, 2.99 µM; in the test with KM12 colon, 23.4 µM; in the test on SK-MEL-28 melanoma, 3.5 µM; in the test on M14 melanoma, 2.7 µM; in the test on HOP-62 NSCLC, 3.59 µM. Besides, the TGI in the test with NCI-H460 lung worked out at 4.8 µM; in the test with MCF7 breast it was 5.29 µM; in the test with CCRF-CEM leukemia it was 31.4 µM; with SNB-19 CNS, 8.77 µM; in the test with UACC-62 melanoma, 2.93 µM; in the test on UO-31 renal, 20.2 µM. Besides, the TGI came to 21.9 µM in the test with SF-268 CNS, 22 µM in the test with ACHN renal, 2.57 µM with SK-MEL-5 melanoma and 7.36 µM in the test on HT29 colon.
For the molecule `NS(=O)(=O)c1ccc(CNc2nc(-c3cccs3)nc3ccc(I)cc23)cc1`, the TGI with LOX IMVI melanoma was 29.3 µM; in the test with DU-145 prostate it was 30.3 µM; in the test with KM12 colon it was 23.7 µM; with SK-MEL-28 melanoma, 40.2 µM; in the test with M14 melanoma, 28.4 µM; with HOP-62 NSCLC it was 49.9 µM. Besides, the TGI with NCI-H460 lung amounted to 29.6 µM; in the test with MCF7 breast, 16.1 µM; in the test with CCRF-CEM leukemia it was 59.7 µM; with SNB-19 CNS, 39.7 µM; with UACC-62 melanoma, 31.5 µM; in the test on UO-31 renal, 4.45 µM. Also, the TGI with SF-268 CNS stood at 61.6 µM; in the test with ACHN renal, 58.3 µM; in the test with SK-MEL-5 melanoma, 27 µM; in the test with HT29 colon, 39.2 µM. In the test on CCRF-CEM leukemia, the GI50 was 21.8 µM.
Turning to `N#CC(c1cc2c(cc1Br)OCO2)N1CCOCC1` (centres undefined), the TGI with LOX IMVI melanoma, with DU-145 prostate, with KM12 colon, in the test on SK-MEL-28 melanoma, in the test on M14 melanoma and in the test with HOP-62 NSCLC was greater than 100 µM in each case. Besides, the TGI in the test with NCI-H460 lung, with MCF7 breast, in the test on CCRF-CEM leukemia, in the test on SNB-19 CNS, in the test with UACC-62 melanoma and with UO-31 renal was greater than 100 µM each time. The TGI with SF-268 CNS, with ACHN renal, in the test on SK-MEL-5 melanoma and with HT29 colon was greater than 100 µM in each case.
